# Patent EP0804408B1, “NOVEL 4-SUBSTITUTED 2,6-DI-TERT-BUTYLPHENOL COMPOUNDS, PHARMACEUTICAL COMPOSITIONS CONTAINING SAME AND PREPARATION METHOD THEREFOR” (priority 1994, dated 1996)
# Tested on: macrophages de lignée RAW264.7
# Experiment: Toxicity test on RAW264.7 macrophages (crystal violet and neutral red staining)
# Type: cell-based, murins
# Details: for DO/ml moyenne sur 4 puis ± écart type / Pourcentage de survie par rapport au témoin cellules en milieu seul: 24 h; for hautement toxique jusqu'à: final conclusion
# Procedure: La toxicité de AVF1 pour les macrophages de lignée RAW264.7 (ATCC TIB 71) utilisés pour le test iNOS a été déterminée dans l'expérience préliminaire suivante :
# Les macrophages de lignée RAW264.7 ont été distribués dans des séries de 4 puits dans une plaque à 96 puits à raison de 1,5 x 10^5/100 µl/ml dans du milieu de culture (D-NEM sans rouge de phénol, Gibco) additionné de 0,2 % d'antibiotique, 1% de L-glutamine et 5% de sérum de veau foetal décomplémenté (produits pour celuture cellulaire Eurobio).
# Après 18 heures, différentes concentrations de raison […] de AVF1 ont été ajoutées sous 100 µl de façon à obtenir les concentrations finales de 10^0 à 10^-10%. Après 24 heures de culture supplémentaire, les cellules ont été observées au microscope et colorées selon deux techniques différentes permettant d'obtenir un pourcentage respectivement de cellules adhérentes au plastique (coloration au violet cristal) et de cellules vivantes (coloration au rouge neutre) : • Dans la première technique, les cellules sont lavées avec du PBS + Ca^2+ + Mg^2+ (Gibco) afin d'éliminer les éventuelles cellules mortes flottantes et de maintenir les cellules vivantes sur le plastique. Le colorant (1% de violet cristal, R.A.L. 20% de méthanol, Merck) est ajouté sous 50 µl/puits et laissé 20 minutes à température ambiante. Après plusieurs lavages doux en PBS + Ca^2+ + Mg^2+ , les plaques sont séchées à 37°C et 100 µl de SDS (Sigma, 1% en eau distillée) sont ajoutés par puits. La plaque est laissée 1 heure à température ambiante à l'abri de la lumière pour permettre la dissolution complète du lysat cellulaire. La plaque est ensuite lue au lecteur ELISA (Labsystems) à 550 nm après 15 secondes d'agitation. Le blanc de densité optique (OD) est fait sur une rangée de 8 cupules n'ayant reçu que 50 µl de la solution de violet cristal puis ayant été traitées comme les autres. • Dans la seconde technique, les cellules reçoivent 50 µl de rouge neutre à 0,3% (R.A.L.) qui est pinocyté par les macrophages vivants. Après 2 heures d'incubation, le milieu est enlevé et les cellules sont lavées doucement avec 200 µl de PBS + Ca^2+ + Mg^2+. Les cellules restantes sont ensuite lysées avec 100 µl de SDS et la plaque est mise à 4°C pendant 1 heure pour permettre un relargage complet du colorant. La plaque est ensuite lue au lecteur ELISA à 570 nm avec un filtre de référence de 630 nm après 15 secondes d'agitation. Le blanc de DO est fait sur une colonne de 8 cupules n'ayant reçu que le colorant puis ayant été traitées comme les autres.
# Pour la réalisation de cet essai, AVF1 a été préparé de la façon suivante : 1 g a été dissout dans 5 ml de D-MEM sans rouge de phénol. Cette solution à 20% a été stérilisée sur 0,22 µm (Minisart, Sartorius), le pH contrôlé (7,5), aliquotée sous 1 ml et conservée à +4°C. Au moment de l'emploi, cette solution a été diluée afin d'obtenir les concentrations finales désirées.
# [1] = ROUGE NEUTRE, second experiment, AVF1 1 10^-7 %
# [2] = ROUGE NEUTRE, second experiment, AVF1 1 10^-8 %
# [3] = ROUGE NEUTRE, second experiment, AVF1 1 10^-9 %
# [4] = ROUGE NEUTRE, second experiment, AVF1 1 10^-10 %
# [5] = ROUGE NEUTRE, second experiment, AVF1 5 10^-7 %
# [6] = ROUGE NEUTRE, second experiment, AVF1 5 10^-8 %
# [7] = ROUGE NEUTRE, second experiment, AVF1 5 10^-9 %
# [8] = ROUGE NEUTRE, second experiment, AVF1 5 10^-10 %
# [9] = ROUGE NEUTRE, second experiment, AVF1 10^-6 %
# [10] = VIOLET CRISTAL, second experiment, AVF1 1 10^-7 %
# [11] = VIOLET CRISTAL, second experiment, AVF1 1 10^-8 %
# [12] = VIOLET CRISTAL, second experiment, AVF1 1 10^-9 %
# [13] = VIOLET CRISTAL, second experiment, AVF1 1 10^-10 %
# [14] = VIOLET CRISTAL, second experiment, AVF1 5 10^-7 %
# [15] = VIOLET CRISTAL, second experiment, AVF1 5 10^-8 %
# [16] = VIOLET CRISTAL, second experiment, AVF1 5 10^-9 %
# [17] = VIOLET CRISTAL, second experiment, AVF1 5 10^-10 %
# [18] = VIOLET CRISTAL, second experiment, AVF1 10^-6 %
smiles,measurement,setting,value
"CC(C)(C)c1cc(C(=O)OCCOCCOCCOCCOCCOCCOCCOCCO)cc(C(C)(C)C)c1O [AVF1, 3,5-di-t-butyl-4-hydroxybenzoate d'octaoxyéthylèneglycol]",n'est plus toxique à partir de,"RAW 264.7 macrophages after 24 heures de culture, non-toxic from this concentration downwards",≤ 10^-6%
same,DO/ml moyenne sur 4 puis ± écart type,"ROUGE NEUTRE, AVF1 0,5 %",0 DO/ml
same,Pourcentage de survie par rapport au témoin cellules en milieu seul,"ROUGE NEUTRE, AVF1 0,5 %",0%
same,DO/ml moyenne sur 4 puis ± écart type,"ROUGE NEUTRE, AVF1 1 10^-2 %",0 DO/ml
same,Pourcentage de survie par rapport au témoin cellules en milieu seul,"ROUGE NEUTRE, AVF1 1 10^-2 %",6%
same,DO/ml moyenne sur 4 puis ± écart type,"ROUGE NEUTRE, AVF1 1 10^-3 %",0 DO/ml
same,Pourcentage de survie par rapport au témoin cellules en milieu seul,"ROUGE NEUTRE, AVF1 1 10^-3 %",0%
same,DO/ml moyenne sur 4 puis ± écart type,"ROUGE NEUTRE, AVF1 1 10^-4 %","0,010 ± 0,002 DO/ml"
same,Pourcentage de survie par rapport au témoin cellules en milieu seul,"ROUGE NEUTRE, AVF1 1 10^-4 %",1%
same,DO/ml moyenne sur 4 puis ± écart type,"ROUGE NEUTRE, AVF1 1 10^-5 %","0,060 ± 0,034 DO/ml"
same,Pourcentage de survie par rapport au témoin cellules en milieu seul,"ROUGE NEUTRE, AVF1 1 10^-5 %",41%
same,DO/ml moyenne sur 4 puis ± écart type,"ROUGE NEUTRE, AVF1 1 %",0 DO/ml
same,Pourcentage de survie par rapport au témoin cellules en milieu seul,"ROUGE NEUTRE, AVF1 1 %",0%
same,DO/ml moyenne sur 4 puis ± écart type,"ROUGE NEUTRE, AVF1 5 10^-3 %",0 DO/ml
same,Pourcentage de survie par rapport au témoin cellules en milieu seul,"ROUGE NEUTRE, AVF1 5 10^-3 %",3%
same,DO/ml moyenne sur 4 puis ± écart type,"ROUGE NEUTRE, AVF1 5 10^-4 %",0 DO/ml
same,Pourcentage de survie par rapport au témoin cellules en milieu seul,"ROUGE NEUTRE, AVF1 5 10^-4 %",0%
same,DO/ml moyenne sur 4 puis ± écart type,"ROUGE NEUTRE, AVF1 5 10^-5 %","0,023 ± 0,003 DO/ml"
same,Pourcentage de survie par rapport au témoin cellules en milieu seul,"ROUGE NEUTRE, AVF1 5 10^-5 %",16%
same,DO/ml moyenne sur 4 puis ± écart type,"ROUGE NEUTRE, AVF1 5 10^-6 %","0,476 ± 0,034 DO/ml"
same,Pourcentage de survie par rapport au témoin cellules en milieu seul,"ROUGE NEUTRE, AVF1 5 10^-6 %",70%
same,DO/ml moyenne sur 4 puis ± écart type,[1],"0,605 ± 0,024 DO/ml"
same,Pourcentage de survie par rapport au témoin cellules en milieu seul,[1],95%
same,DO/ml moyenne sur 4 puis ± écart type,[2],"0,601 ± 0,121 DO/ml"
same,Pourcentage de survie par rapport au témoin cellules en milieu seul,[2],95%
same,DO/ml moyenne sur 4 puis ± écart type,[3],"0,594 ± 0,083 DO/ml"
same,Pourcentage de survie par rapport au témoin cellules en milieu seul,[3],93%
same,DO/ml moyenne sur 4 puis ± écart type,[4],"0,609 ± 0,053 DO/ml"
same,Pourcentage de survie par rapport au témoin cellules en milieu seul,[4],96%
same,DO/ml moyenne sur 4 puis ± écart type,[5],"0,652 ± 0,089 DO/ml"
same,Pourcentage de survie par rapport au témoin cellules en milieu seul,[5],100%
same,DO/ml moyenne sur 4 puis ± écart type,[6],"0,575 ± 0,040 DO/ml"
same,Pourcentage de survie par rapport au témoin cellules en milieu seul,[6],90%
same,DO/ml moyenne sur 4 puis ± écart type,[7],"0,545 ± 0,015 DO/ml"
same,Pourcentage de survie par rapport au témoin cellules en milieu seul,[7],86%
same,DO/ml moyenne sur 4 puis ± écart type,[8],"0,573 ± 0,030 DO/ml"
same,Pourcentage de survie par rapport au témoin cellules en milieu seul,[8],90%
same,DO/ml moyenne sur 4 puis ± écart type,[9],"0,602 ± 0,059 DO/ml"
same,Pourcentage de survie par rapport au témoin cellules en milieu seul,[9],95%
same,DO/ml moyenne sur 4 puis ± écart type,"VIOLET CRISTAL, AVF1 0,5 %","0,118 ± 0,027 DO/ml"
same,Pourcentage de survie par rapport au témoin cellules en milieu seul,"VIOLET CRISTAL, AVF1 0,5 %",6%
same,DO/ml moyenne sur 4 puis ± écart type,"VIOLET CRISTAL, AVF1 1 10^-2 %","0,118 ± 0,027 DO/ml"
same,Pourcentage de survie par rapport au témoin cellules en milieu seul,"VIOLET CRISTAL, AVF1 1 10^-2 %",6%
same,DO/ml moyenne sur 4 puis ± écart type,"VIOLET CRISTAL, AVF1 1 10^-3 %","0,117 ± 0,027 DO/ml"
same,Pourcentage de survie par rapport au témoin cellules en milieu seul,"VIOLET CRISTAL, AVF1 1 10^-3 %",8%
same,DO/ml moyenne sur 4 puis ± écart type,"VIOLET CRISTAL, AVF1 1 10^-4 %","0,180 ± 0,016 DO/ml"
same,Pourcentage de survie par rapport au témoin cellules en milieu seul,"VIOLET CRISTAL, AVF1 1 10^-4 %",9%
same,DO/ml moyenne sur 4 puis ± écart type,"VIOLET CRISTAL, AVF1 1 10^-5 %","0,259 ± 0,033 DO/ml"
same,Pourcentage de survie par rapport au témoin cellules en milieu seul,"VIOLET CRISTAL, AVF1 1 10^-5 %",12%
same,DO/ml moyenne sur 4 puis ± écart type,"VIOLET CRISTAL, AVF1 1 %","0,172 ± 0,030 DO/ml"
same,Pourcentage de survie par rapport au témoin cellules en milieu seul,"VIOLET CRISTAL, AVF1 1 %",8%
same,DO/ml moyenne sur 4 puis ± écart type,"VIOLET CRISTAL, AVF1 5 10^-3 %","0,061 ± 0,017 DO/ml"
same,Pourcentage de survie par rapport au témoin cellules en milieu seul,"VIOLET CRISTAL, AVF1 5 10^-3 %",3%
same,DO/ml moyenne sur 4 puis ± écart type,"VIOLET CRISTAL, AVF1 5 10^-4 %","0,156 ± 0,010 DO/ml"
same,Pourcentage de survie par rapport au témoin cellules en milieu seul,"VIOLET CRISTAL, AVF1 5 10^-4 %",7%
same,DO/ml moyenne sur 4 puis ± écart type,"VIOLET CRISTAL, AVF1 5 10^-5 %","0,216 ± 0,034 DO/ml"
same,Pourcentage de survie par rapport au témoin cellules en milieu seul,"VIOLET CRISTAL, AVF1 5 10^-5 %",10%
same,DO/ml moyenne sur 4 puis ± écart type,"VIOLET CRISTAL, AVF1 5 10^-6 %","1,129 ± 0,069 DO/ml"
same,Pourcentage de survie par rapport au témoin cellules en milieu seul,"VIOLET CRISTAL, AVF1 5 10^-6 %",54%
same,DO/ml moyenne sur 4 puis ± écart type,[10],"0,960 ± 0,070 DO/ml"
same,Pourcentage de survie par rapport au témoin cellules en milieu seul,[10],86%
same,DO/ml moyenne sur 4 puis ± écart type,[11],"1,128 ± 0,043 DO/ml"
same,Pourcentage de survie par rapport au témoin cellules en milieu seul,[11],100%
same,DO/ml moyenne sur 4 puis ± écart type,[12],"1,010 ± 0,059 DO/ml"
same,Pourcentage de survie par rapport au témoin cellules en milieu seul,[12],91%
same,DO/ml moyenne sur 4 puis ± écart type,[13],"0,934 ± 0,050 DO/ml"
same,Pourcentage de survie par rapport au témoin cellules en milieu seul,[13],84%
same,DO/ml moyenne sur 4 puis ± écart type,[14],"1,051 ± 0,041 DO/ml"
same,Pourcentage de survie par rapport au témoin cellules en milieu seul,[14],94%
same,DO/ml moyenne sur 4 puis ± écart type,[15],"1,089 ± 0,051 DO/ml"
same,Pourcentage de survie par rapport au témoin cellules en milieu seul,[15],98%
same,DO/ml moyenne sur 4 puis ± écart type,[16],"0,970 ± 0,062 DO/ml"
same,Pourcentage de survie par rapport au témoin cellules en milieu seul,[16],87%
same,DO/ml moyenne sur 4 puis ± écart type,[17],"1,000 ± 0,089 DO/ml"
same,Pourcentage de survie par rapport au témoin cellules en milieu seul,[17],90%
same,DO/ml moyenne sur 4 puis ± écart type,[18],"0,991 ± 0,078 DO/ml"
same,Pourcentage de survie par rapport au témoin cellules en milieu seul,[18],89%
same,toxique jusqu'à la concentration de,"conclusion of first toxicity experiment (Tableaux III, IV), toxic down to this concentration",≥ 5 x 10^-5%
same,hautement toxique jusqu'à,conversion of 10^-5 %,~100 nM
same,hautement toxique jusqu'à,toxic down to this concentration,≥ 10^-5%
